Counter-ions that a name gives are not always drawn. Like-named read-outs stand apart in the source and are kept apart here.
Legend:
AP-N (EC3.4.11.2) = molecular target: T1, AP-N (EC3.4.11.2) (Sus scrofa, UniProt P15145); assay: AP-N inhibitory activity, inhibition constant Ki by spectrophotometry (Dixon method); type: biochemical, porcine; settings: L-leucine para-nitroanilide substrate, 30° C., pH=7.5; hydrochloride, racemic mixture
T1 construct: The AP-N is purified in a soluble form according to the method described by Wacker; purchased Sigma Chemical Corporation; host or cells: porcine livers (tissue)
T1 sequence (P15145 33-963 limits assumed): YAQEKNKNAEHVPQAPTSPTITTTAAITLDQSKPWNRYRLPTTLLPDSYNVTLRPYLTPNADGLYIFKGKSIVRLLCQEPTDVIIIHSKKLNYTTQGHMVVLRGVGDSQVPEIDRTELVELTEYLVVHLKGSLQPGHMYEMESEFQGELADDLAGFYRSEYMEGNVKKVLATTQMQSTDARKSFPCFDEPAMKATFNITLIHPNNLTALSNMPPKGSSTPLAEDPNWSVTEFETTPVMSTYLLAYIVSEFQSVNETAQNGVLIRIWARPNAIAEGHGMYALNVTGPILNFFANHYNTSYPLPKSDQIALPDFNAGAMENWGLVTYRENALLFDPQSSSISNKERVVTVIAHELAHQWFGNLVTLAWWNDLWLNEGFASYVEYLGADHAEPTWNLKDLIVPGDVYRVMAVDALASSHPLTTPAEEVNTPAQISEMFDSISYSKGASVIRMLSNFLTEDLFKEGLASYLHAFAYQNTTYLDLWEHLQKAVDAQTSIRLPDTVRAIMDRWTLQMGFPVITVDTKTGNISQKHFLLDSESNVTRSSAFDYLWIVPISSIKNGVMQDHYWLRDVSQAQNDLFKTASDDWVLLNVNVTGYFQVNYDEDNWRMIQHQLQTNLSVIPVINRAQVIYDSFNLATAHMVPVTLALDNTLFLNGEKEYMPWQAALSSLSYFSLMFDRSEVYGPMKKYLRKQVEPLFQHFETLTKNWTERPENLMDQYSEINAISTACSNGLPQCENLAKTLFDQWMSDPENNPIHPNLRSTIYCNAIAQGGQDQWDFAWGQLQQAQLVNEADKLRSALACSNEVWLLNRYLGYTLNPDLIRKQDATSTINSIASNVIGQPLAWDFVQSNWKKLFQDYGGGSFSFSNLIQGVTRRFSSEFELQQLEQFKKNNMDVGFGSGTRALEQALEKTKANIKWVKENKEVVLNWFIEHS
Source text: (§1) LTA4H has an aminopeptidase type activity similar to AP-N and a very close substrate specificity. It is important for the AP-N inhibitory molecules neither to inhibit LTA4H nor aminopeptidases that contain a co-catalytic unit like LAPc.
(§2) The LAPc enzymes from bovine livers and AP-N from porcine livers are marketed by Sigma Chemical Corporation. The AP-N is purified in a soluble form according to the method described by Wacker, H., Lecky, P., Fischer E. H., Stein, E. A. Hely. Chim.
(§3) The kinetic studies are carried out at 30° C. and the reactions are started up by adding the enzymes in 1 mL of test medium: LAPc, 5 units in 10 mM Tris-HCl, 0.1 mM ZnCl2, 5 mM MnCl2, 1 M KCl, pH=8.0; AP-N, 25 mUnits in 10 mM Tris-HCl, pH=7.5 and LTA4H, 5 μg in 10 mM Tris-HCl, 0.1 mM KCl, pH=7.5.
(§4) All the inhibitory molecules are assessed as an hydrochloride and in racemic mixture.

[1] = molecular target: T2, human recombinant leukotriene A4 hydrolase (LTA4H) (EC3.3.2.6) (Homo sapiens, UniProt P09960); assay: LTA4H aminopeptidase inhibition, Ki by spectrophotometry (Dixon method); type: biochemical; settings: alanine para-nitroanilide substrate, 30° C., pH=7.5; hydrochloride, racemic mixture
T2 sequence (P09960 1-611): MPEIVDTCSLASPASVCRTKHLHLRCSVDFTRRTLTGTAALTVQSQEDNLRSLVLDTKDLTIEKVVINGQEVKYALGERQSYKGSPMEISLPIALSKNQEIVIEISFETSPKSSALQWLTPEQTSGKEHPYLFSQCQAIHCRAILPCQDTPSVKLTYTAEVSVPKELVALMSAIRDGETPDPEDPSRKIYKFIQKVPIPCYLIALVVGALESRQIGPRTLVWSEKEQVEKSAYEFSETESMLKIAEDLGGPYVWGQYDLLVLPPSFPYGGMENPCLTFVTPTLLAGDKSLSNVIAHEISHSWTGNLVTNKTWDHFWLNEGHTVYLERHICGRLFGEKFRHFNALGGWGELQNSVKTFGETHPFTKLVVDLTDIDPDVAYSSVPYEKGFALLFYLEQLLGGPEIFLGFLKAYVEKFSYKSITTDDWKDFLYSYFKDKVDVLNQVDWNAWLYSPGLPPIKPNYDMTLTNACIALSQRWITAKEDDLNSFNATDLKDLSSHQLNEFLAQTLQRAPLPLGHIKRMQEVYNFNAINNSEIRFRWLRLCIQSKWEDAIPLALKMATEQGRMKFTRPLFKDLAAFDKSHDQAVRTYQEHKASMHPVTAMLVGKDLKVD
Description: as §1, §3, §4

[2] = molecular target: T3, cytosolic leucine aminopeptidase (LAPc) (EC3.4.11.1) (Bos taurus, UniProt P00727); assay: LAPc inhibition, Ki by spectrophotometry (Dixon method); type: biochemical, bovine
T3 construct: The LAPc enzymes from bovine livers; purchased Sigma Chemical Corporation; host or cells: bovine livers (tissue)
T3 sequence (P00727 1-519): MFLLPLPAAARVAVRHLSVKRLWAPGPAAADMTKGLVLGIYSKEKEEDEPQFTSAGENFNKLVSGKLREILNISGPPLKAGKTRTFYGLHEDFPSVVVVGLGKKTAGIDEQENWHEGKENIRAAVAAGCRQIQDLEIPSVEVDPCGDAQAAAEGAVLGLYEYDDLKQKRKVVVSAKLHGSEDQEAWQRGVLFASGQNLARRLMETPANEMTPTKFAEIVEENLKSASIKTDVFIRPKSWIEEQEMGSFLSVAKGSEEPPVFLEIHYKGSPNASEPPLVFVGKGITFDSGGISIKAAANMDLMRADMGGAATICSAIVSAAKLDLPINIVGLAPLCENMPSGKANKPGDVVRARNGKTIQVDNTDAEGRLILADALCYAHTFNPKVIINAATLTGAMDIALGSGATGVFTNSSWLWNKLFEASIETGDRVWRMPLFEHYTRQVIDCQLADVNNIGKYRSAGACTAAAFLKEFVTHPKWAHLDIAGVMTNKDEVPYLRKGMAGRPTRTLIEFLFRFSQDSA
Source text: as §1, §2, §3, §4

AP-N from porcine livers = molecular target: T4, AP-N from porcine livers (Sus scrofa, UniProt P15145); assay: Stability in aqueous solution, followed by AP-N inhibition over at least 10 hours; type: biochemical; settings: read-out: inhibition of AP-N throughout the test
T4 construct: The AP-N is purified in a soluble form according to the method described by Wacker; purchased Sigma Chemical Corporation; host or cells: porcine livers (tissue)
T4 sequence (P15145 33-963 limits assumed): T1 sequence (P15145 33-963 limits assumed)
Description: The enzymatic tests are carried out at 25° C. in 20 mM Tris-HCl, pH=7.5 with 0.2 mM L-leucine para-nitroanilide as a substrate, in a total reaction volume of 1 mL. […] The reaction is started up by adding 3 milliunits of AP-N from porcine livers.
Under these experimental conditions, the linear kinetics is monitored for at least 10 hours.

[3] = L-leucine para-nitroanilide substrate, 30° C., pH=8.0, hydrochloride, racemic mixture, read-out: Ki (M) LAPc (EC3.4.11.1)

Compound	Ki (AP-N (EC3.4.11.2))	Ki [1]	Ki [2, 3]	inhibition at 200 µM (AP-N from porcine livers)	melting point	Ki [2]
NC1CCc2ccccc2C(F)C1=O (racemic) [EX 3, 7-amino-5-fluoro-5,7,8,9-tetrahydro-benzocyclohepten-6-one hydrochloride]	0.3 µM	> 1000 µM	> 0.001 M			
Cl.NC1CCc2ccccc2CC1=O (racemic) [EX 2, 7-amino-5,7,8,9-tetrahydro-benzocyclohepten-6-one hydrochloride]	1 µM	> 1000 µM	> 0.001 M	50%		
NC1CCc2c(Br)cccc2CC1=O (racemic) [EX 9, 7-amino-1-bromo-5,7,8,9-tetrahydro-benzocyclohepten-6-one hydrochloride]		> 1000 µM	> 0.001 M			
Cl.NC1CCc2ccccc2CC1=NO (stereo not drawn)					270 to 280 °C	
Cl.NC1CCc2ccccc2C(CCCc2ccccc2)C1=O (racemic) [EX 6, 5-phenylpropyl-7-amino-5,7,8,9-tetrahydro-benzocyclohepten-6-one hydrochloride]	12 µM	> 1000 µM	> 0.001 M		156 to 158 °C	
NC1CCc2ccccc2C(SCc2ccccc2)C1=O (racemic) [EX 8, 5-benzylsulphanyl-7-amino-5,7,8,9-tetrahydro-benzocyclohepten-6-one hydrochloride]	0.08 µM	> 1000 µM	> 0.001 M			
NC1CCc2cccc(-c3ccccc3)c2CC1=O (racemic) [EX 7, 7-amino-4-phenyl-5,7,8,9-tetrahydro-benzocyclohepten-6-one hydrochloride]		> 1000 µM	2e-05 M			
NC1Cc2ccccc2CC1=O (racemic) [EX 10, 2-amino-3-tetralone, reference compound]		> 1000 µM				0.00012 M
